Each structure is given as a SMILES string. “Also recorded” adds a separate entry of the source.

The target of one test is T1, AR^v567es (Homo sapiens, UniProt P10275).
T1 construct: host or cells: COS-1
The settings on record: 25 μM; COS-1 cells; cited from earlier work.

The target of another test is T2, AR-v7 (Homo sapiens, UniProt P10275).
T2 sequence (P10275 1-644 isoform P10275-3): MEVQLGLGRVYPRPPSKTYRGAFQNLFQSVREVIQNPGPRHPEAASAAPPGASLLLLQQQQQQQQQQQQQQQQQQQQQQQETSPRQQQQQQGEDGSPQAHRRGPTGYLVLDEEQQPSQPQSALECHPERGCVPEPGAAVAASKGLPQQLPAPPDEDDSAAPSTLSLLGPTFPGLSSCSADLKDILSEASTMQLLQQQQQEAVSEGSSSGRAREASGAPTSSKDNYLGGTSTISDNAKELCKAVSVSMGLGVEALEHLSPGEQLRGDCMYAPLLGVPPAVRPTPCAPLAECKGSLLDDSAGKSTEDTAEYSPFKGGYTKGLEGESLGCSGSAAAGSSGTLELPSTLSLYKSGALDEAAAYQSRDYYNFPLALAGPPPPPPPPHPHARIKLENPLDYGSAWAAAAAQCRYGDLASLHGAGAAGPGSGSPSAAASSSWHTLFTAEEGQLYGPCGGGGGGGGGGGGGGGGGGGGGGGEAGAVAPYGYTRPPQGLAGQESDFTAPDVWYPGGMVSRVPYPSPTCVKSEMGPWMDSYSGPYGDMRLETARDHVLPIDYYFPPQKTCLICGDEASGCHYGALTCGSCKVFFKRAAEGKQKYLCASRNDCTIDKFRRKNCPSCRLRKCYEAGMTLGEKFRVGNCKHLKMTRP
As to the kind of experiment: AR-v7-dependent PSA-luc reporter assay in HEK293 cells. The conditions noted are these: 25 μM.

A further test deals with T3, AR-v7 in LNCaP cells (Homo sapiens, UniProt P10275).
T3 sequence (P10275 1-644 isoform P10275-3): T2 sequence (P10275 1-644 isoform P10275-3)
The experiment in a line: PSA-luc reporter assay in LNCaP cells transiently transfected with pIRES-AR-v7. The settings on record: 24 h. (In general: A reporter such as luciferase makes a cellular process visible.)

Test [1] concerns endogenous AR-Vs in 22Rv1 cells. As to the kind of experiment: PSA-luc reporter assay in androgen-starved 22Rv1 cells (endogenous LBD-truncated AR variants). The settings on record: androgen-starved 3 days, 24 h exposure.
Experimental: NT, LNCaP cells were transiently transfected with pIRES vector, PSA-luc and pRL-TK. […] Cells were then transiently transfected with PSA-Luc and pRL-TK and exposed to DMSO or compounds for 24 h, in triplicate. NT, not transfected with PSA-luc.
The ARs were probed by N-terminal directed AR antibody (N20, Santa Cruz); B) The 22Rv1 cells were androgen-starved (in phenol red-free medium+10% CS-FBS) for 3 days to ensure the full-length AR expressed in 22Rv1 are not activated. The 22Rv1 cells were subsequently co-transfected with PSA-luc and pRL-TK plasmids. […] Cells in phenol red-free medium+10% CS-FBS were exposed to DMSO or compounds for 24 h and harvested for Western blot analysis.
The cells were androgen-starved for 3 days and transfected with PSA-Luc and pRL-TK plasmids. NT, cells were transfected with empty vector. Cells were exposed to vehicle control or compounds for 24 h.

T1 sequence (P10275 with tags, fused parts or gaps limits assumed): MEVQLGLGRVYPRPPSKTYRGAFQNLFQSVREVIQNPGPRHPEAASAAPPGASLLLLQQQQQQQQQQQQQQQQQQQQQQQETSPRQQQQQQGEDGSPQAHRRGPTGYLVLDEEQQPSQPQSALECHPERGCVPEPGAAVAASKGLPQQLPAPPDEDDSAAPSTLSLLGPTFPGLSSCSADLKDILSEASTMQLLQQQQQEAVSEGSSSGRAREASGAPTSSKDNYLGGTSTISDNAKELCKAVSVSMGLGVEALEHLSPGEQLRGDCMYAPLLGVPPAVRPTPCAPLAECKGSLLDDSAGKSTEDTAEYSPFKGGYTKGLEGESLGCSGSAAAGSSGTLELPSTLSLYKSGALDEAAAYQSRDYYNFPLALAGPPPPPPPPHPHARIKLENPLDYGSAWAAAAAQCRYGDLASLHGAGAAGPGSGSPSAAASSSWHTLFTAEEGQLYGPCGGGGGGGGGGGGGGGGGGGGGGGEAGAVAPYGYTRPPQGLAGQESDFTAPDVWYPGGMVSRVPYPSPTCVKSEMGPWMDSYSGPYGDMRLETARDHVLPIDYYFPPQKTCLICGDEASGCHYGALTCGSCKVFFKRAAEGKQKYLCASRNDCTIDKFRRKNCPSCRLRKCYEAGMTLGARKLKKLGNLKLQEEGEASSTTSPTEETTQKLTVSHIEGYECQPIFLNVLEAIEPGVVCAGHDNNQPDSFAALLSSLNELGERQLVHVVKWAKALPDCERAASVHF
Experimental for AR-v7 in LNCaP cells: NT, LNCaP cells were transiently transfected with pIRES vector, PSA-luc and pRL-TK. […] Cells were then transiently transfected with PSA-Luc and pRL-TK and exposed to DMSO or compounds for 24 h, in triplicate.

On to `CC(C)(c1ccc(OCC(O)CO)cc1)c1ccc(OCC(O)CCl)cc1` (stereo not drawn) [EPI-001, reference compound], for which the “suppression of constitutive activation of AR^v567es in PSA-Luc reporter assay” value on AR^v567es was “half”. Also, at AR-v7, the “inhibition of constitutive activation of AR-v7 (PSA-luc)” value is reported as “inhibit; also recorded: active”. For the same compound, the “activity in LNCaP cells with forced expression of AR-v7 (PSA-luc)” value on AR-v7 in LNCaP cells is listed as “remain active”. In addition, in test [1], the “activity against constitutive activation of endogenous AR-Vs in 22Rv1 cells (PSA-luc)” value was “active”.
